This is an account of results in patent US20230355647A1, “Marker for determining anti-cancer effects of mitochondrial oxidative phosphorylation pathway inhibitor” (NANJING SHIJIANG MEDICINE TECHNOLOGY CO., LTD, priority 2020, published 2023).

Experiment [1] has as its system U-251 MG. As to the kind of experiment: Cell viability (CellTiter-Glo), U-251 MG. It is filed as cell-based. Particulars: Homo sapiens; U-251 MG cell line, 3-4 days of culture. As for the experimental part: (§1) Cell viability was detected using the Promega CellTiter-Glo kit, the kit reflected cell viability by directly measuring intracellular ATP content. The inhibitory effect (IC50 value) of Gboxin, a mitochondrial oxidative phosphorylation pathway inhibitor, on different tumor cell lines was tested in the Example. The name, source, and culture condition of each tumor cell line were as follows:
Cell line U-251 MG (ECACC, No. 9063001) was cultured in EMEM medium containing 2 mM glutamine, 1% NEAA, 1 mM sodium pyruvate (NaP) and 10% fetal bovine serum (+P/S).
(§2) The above tumor cells were cultured in the relevant medium (+P/S), and incubated for 3 h, then the gradient diluted Gboxin was added, and IC50 (50% inhibiting concentration) was measured after 3-4 days of culture.
For orientation: In ATP-based viability assays light output follows the ATP content of the culture.

Experiment [2] concerns 22RV1. The experiment is described as follows: Cell viability (CellTiter-Glo), 22RV1. It counts as cell-based. The settings on record: Homo sapiens; 22RV1 cell line, 3-4 days of culture. As for the experimental part:
as §1
Cell line 22RV1 (ATCC, No. CRL-2505) was cultured in 10% fetal bovine serum-containing RPMI1640 medium (+P/S).
as §2

The subject of experiment [3] is LS 180. The experiment is described as follows: Cell viability (CellTiter-Glo), LS 180. It counts as cell-based. The settings on record: Homo sapiens, LS180; LS 180 cell line, 3-4 days of culture. The method, then: as §1
Cell line LS 180 (ATCC, No. CL-187) was cultured in 10% fetal bovine serum-containing EMEM medium (+P/S).
as §2

In experiment [4] the test system is brain tumors and other tumors. Particulars: study published in Nature (2019); cited from earlier work.
Experiment [5] concerns GB-1. The experiment is described as follows: Cell viability (CellTiter-Glo), GB-1. The settings on record: Homo sapiens; GB-1 cell line, 3-4 days of culture. It is filed as cell-based. The method, then:
as §1
Cell line GB-1 (JCRB, No. IFO50489) was cultured in 10% fetal bovine serum-containing DMEM medium (+P/S).
as §2
Cell viability was detected using the Promega CellTiter-Glo kit, the kit reflected cell viability by directly measuring intracellular ATP content. In this experiment, the IC50 values of Oligomycin A or IACS-010759, a mitochondrial oxidative phosphorylation pathway inhibitor, on different tumor cells was determined.
The different tumor cells were cultured in the relevant medium (+P/S) as shown in Example 2, and incubated for 3 h, then the gradient diluted Oligomycin A or IACS-010759 was added respectively, and IC50 (50% inhibiting concentration) of Oligomycin A or IACS-010759 on different tumor cells was measured after 3-4 days of culture.

Experiment [6] concerns BT-549. The experiment is described as follows: Cell viability (CellTiter-Glo), BT-549. It is filed as cell-based. The settings on record: Homo sapiens; BT-549 cell line, 3-4 days of culture. The method, then:
as §1
Cell line BT-549 (ATCC, No. HTB-122) was cultured in RPMI1640 medium containing 10% fetal bovine serum and 0.023 IU/ml human insulin (+P/S).
as §2

Experiment [7] concerns NCI-H2081. The experiment is described as follows: Cell viability (CellTiter-Glo), NCI-H2081. It is filed as cell-based. Particulars: Homo sapiens; NCI-H2081 cell line, 3-4 days of culture. As for the experimental part:
as §1
Cell line NCI-H2081 (ATCC, No. CRL-5920) was cultured in 5% fetal bovine serum-containing HITES medium (+P/S).
as §2

In experiment [8] the test system is PC-3. The experiment is described as follows: Cell viability (CellTiter-Glo), PC-3. It counts as cell-based. Particulars: Homo sapiens; PC-3 cell line, 3-4 days of culture. As for the experimental part:
as §1
Cell line PC-3 (ATCC, No. CRL-1435) was cultured in 10% fetal bovine serum-containing F-12K medium (+P/S).
as §2

In experiment [9] the test system is 786-O. The experiment is described as follows: Cell viability (CellTiter-Glo), 786-O. It is filed as cell-based. Particulars: Homo sapiens, 786-0; 786-O cell line, 3-4 days of culture. The method, then:
as §1, with “follows: Cell line 786-O (ATCC, No. CRL-1932) was cultured in 10% fetal bovine serum-containing RPMI1640 medium (+P/S). […] Cell viability was detected using the Promega CellTiter-Glo kit, the kit reflected cell viability by directly measuring intracellular ATP content.” for “follows:”

For experiment [10], the system named is CFPAC-1. As to the kind of experiment: Cell viability (CellTiter-Glo), CFPAC-1. It is filed as cell-based. Particulars: Homo sapiens; CFPAC-1 cell line, 3-4 days of culture. As for the experimental part:
as §1, with “follows: Cell line CFPAC-1 (ATCC, No. CRL-1918) was cultured in 10% fetal bovine serum-containing IMDM medium (+P/S). […] Cell viability was detected using the Promega CellTiter-Glo kit, the kit reflected cell viability by directly measuring intracellular ATP content.” for “follows:”

The subject of experiment [11] is MDA-MB-453. The experiment is described as follows: Cell viability (CellTiter-Glo), MDA-MB-453. It is filed as cell-based. The settings on record: Homo sapiens; MDA-MB-453 cell line, 3-4 days of culture. As for the experimental part:
as §1, with “follows: Cell line MDA-MB-453 (ATCC, No. HTB-131) was cultured in 10% fetal bovine serum-containing Leibovitz's L-15 medium (+P/S). […] Cell viability was detected using the Promega CellTiter-Glo kit, the kit reflected cell viability by directly measuring intracellular ATP content.” for “follows:”

The test system of experiment [12] is MDA-MB-231. As to the kind of experiment: Cell viability (CellTiter-Glo), MDA-MB-231. It counts as cell-based. Particulars: Homo sapiens; MDA-MB-231 cell line, 3-4 days of culture. As for the experimental part: as §1
Cell line MDA-MB-231 (ATCC, No. HTB-26) was cultured in 10% fetal bovine serum-containing Leibovitz's L-15 medium (+P/S).
as §2

Experiment [13] deals with MIA PaCa-2. The experiment is described as follows: Cell viability (CellTiter-Glo), MIA PaCa-2. It is filed as cell-based. Particulars: Homo sapiens; MIA PaCa-2 cell line, 3-4 days of culture. As for the experimental part: as §1
Cell line MIA PaCa-2 (ATCC, No. CRL-1420) was cultured in 10% fetal bovine serum-containing DMEM medium (+P/S).
as §2

Experiment [14] deals with C3A. The experiment is described as follows: Cell viability (CellTiter-Glo), C3A. It is filed as cell-based. Particulars: Homo sapiens; C3A cell line, 3-4 days of culture. The method, then: as §1
Cell line C3A (ATCC, No. CRL-10741) was cultured in 10% fetal bovine serum-containing EMEM medium (+P/S).
as §2

Take `CCc1n(CC(=O)O[C@@H]2C[C@H](C)CC[C@H]2C(C)C)c2ccccc2[n+]1C.[Cl-]` [Gboxin]: the IC50 (as a rule, the concentration needed to halve the response being measured) in experiment [1] is 16.7 µM; in experiment [2] it was 2.53 µM; in experiment [3], 8.9 µM; in [5] it was greater than 30 µM; in experiment [6], 3.28 µM; in experiment [7], 13.9 µM. Further, the IC50 is 21.3 µM in experiment [8]; greater than 30 µM in [9]; greater than 30 µM in [10]; 0.942 µM in experiment [11]; 17.8 µM in experiment [12]; 2.57 µM in [13]. The compound further came in with an IC50 in experiment [14] of 25.7 µM. The “killing effect on brain tumors and other tumors” value in experiment [4] is recorded as “excellent killing effect”.
